IC50 data for 54 compounds are collected here from patent US20250304571A1, “BIOLOGICALLY ACTIVE COMPOUNDS AND METHODS THEREOF” (Suzhou Keen Therapeutics Co., Ltd., priority 2022, published 2025).

This experiment has as its system 786-O (renal cell carcinoma) cells. The experiment in a line: Cell viability (CellTiter Glo) assay, inhibition of 786-O cell proliferation. As to conditions: read-out: IC50, inhibition of 786-O cell proliferation. Type of experiment: cell-based. Background: Cellular ATP, detected with luciferase, serves as a proxy for viable cell number.
[1] abbreviates: Homo sapiens, 786-0, 786-O cells, 72 hours, CellTiter Glo.

pIC50: −log10 of the molar value. Where two headings read alike, the source gives them in different places.

Regarding `CNc1nc(COC(=N)N2CCC[C@H]2C(F)(F)F)nc2c1C1(CCCC1)C(=O)N2c1cnc(N2C[C@@H](C)O[C@@H](C)C2)nc1` (relative stereo) [Compound E103], the pIC50 under setting [1] was 6.30 to 7.00.
For the compound `CCCC[C@H]1Cc2cc(OC)ccc2[C@H](c2ccc(F)cc2)N1C(=O)CO/C(=N\CCCN(C)C)NCC` [Compound A3], the pIC50 under setting [1] was less than 5.30.
The same measure, in the same setting: the value for `CCCC[C@H]1Cc2cc(OC)ccc2[C@H](c2ccc(F)cc2)N1C(=O)CO/C(=N\C(C)C)NC(C)C` [Compound A4] was 5.30 to 6.30.
For `CCCCC1Cc2c([nH]c3ccccc23)C(c2ccc(NC34CC5CC(CC(C5)C3)C4)cc2)N1C(=O)CO/C(=N\C(C)C)NC(C)C` (stereo not drawn) [Compound B1], under setting [1], the pIC50 was less than 5.30.
With `CCCCC1Cc2c([nH]c3ccccc23)C(c2ccc(F)cc2)N1C(=O)COC(=N)N1CCN(CC)C(=O)C12CC2` (stereo not drawn) [Compound B2], under setting [1], the pIC50 is 5.30 to 6.30.
As for `N=C(OCc1ncc2c(n1)N(c1ccc(Oc3ccccc3)cc1)C(=O)CC2)N1CCC(F)(F)CC1` [Compound C1], the pIC50 under setting [1] is less than 5.30.
For the compound `CN(C)C(=N)OCc1nc(NC2CCCCC2)c2cc[nH]c2n1` [Compound D9], for the setting “Homo sapiens, 786-0, 72 h”, the pIC50 was 5.30 to 6.30.
Still for that read-out and setting: the value for `CN(C)C(=N)OCc1ncc2c(n1)c(-c1ccc(Oc3ccccc3)cc1)nn2C` [Compound D11] was 5.30 to 6.30.
As to `CC1(C)CN(c2ccc(Oc3ccccc3)cc2)c2nc(COC(=N)NC34CC5CC(CC(C5)C3)C4)nc(N)c21` [Compound E3], the pIC50 under setting [1] was 6.30 to 7.00.
Take `COc1ccc(CNc2nc(COC(=N)N3CCC(F)(F)CC3)nc3c2C(C)(C)CN3c2ccc(Oc3ccccc3)cc2)cc1` [Compound E6]: the pIC50 under setting [1] is 6.30 to 7.00.
`CNc1nc(COC(=N)N2CCC(F)(F)CC2)nc2c1C(C)(C)CN2c1ccc(Oc2ccccc2)cc1` [Compound E7, (5,5-dimethyl-4-(methylamino)-7-(4-phenoxyphenyl)-6,7-dihydro-5H-pyrrolo[2,3-d]pyrimidin-2-yl)methyl 4,4-difluoropiperidine-1-carbimidate]: under setting [1], the pIC50 is greater than 7.00.
With `CCN(CC(F)(F)F)C(=N)OCc1ncc2c(n1)N(c1ccc(Oc3ccccc3)cc1)CC2(C)C` [Compound E9], the pIC50 under setting [1] is greater than 7.00.
The same measure, in the same setting: next, `CC1(C)CN(c2ccc(Oc3ccccc3)cc2)c2nc(COC(=N)N3CCCCC3C(F)(F)F)ncc21` (stereo not drawn) [Compound E10]: greater than 7.00; `CC1(C)CN(c2ccc(Oc3ccccc3)cc2)c2nc(COC(=N)N3CCCC34COC4)ncc21` [Compound E11]: 5.30 to 6.30; `N=C(OCc1ncc2c(n1)N(c1ccc(Oc3ccccc3)cc1)C(=O)C21CC1)N1CCCCC1C(F)(F)F` (stereo not drawn) [Compound E12]: 6.30 to 7.00.
As to `CC(C)N(CC(F)(F)F)C(=N)OCc1ncc2c(n1)N(c1ccc(OC3CCCCC3)nc1)C(=O)C21CC1` [Compound E13], the pIC50 under setting [1] was 6.30 to 7.00.
Same read-out and setting: the value for `CNc1nc(COC(=N)N2CCCC2C(F)(F)F)nc2c1C(C)(C)CN2c1ccc(N2CCOCC2)cc1OC` (stereo not drawn) [Compound E15] was greater than 7.00; that for `COc1cc(N2CCOCC2)ccc1N1CC(C)(C)c2c(NCC(F)(F)F)nc(COC(=N)N3CCC[C@@H]3C(F)(F)F)nc21` [Compound E16] was greater than 7.00.
With `COc1cc(N2CCOCC2)ccc1N1CC(C)(C)c2c(OCC(F)(F)F)nc(COC(=N)N3CCC[C@@H]3C(F)(F)F)nc21` [Compound E17], the pIC50 (Homo sapiens, 786-0, 72 h) was greater than 7.00.
As for `CC1(C)CN(c2ccc(N3CCOCC3)cc2)c2nc(COC(=N)N3CCCC3C(F)(F)F)nc(N)c21` (stereo not drawn) [Compound E18], the pIC50 under setting [1] was greater than 7.00.
Regarding `CNc1nc(COC(=N)N2CCC[C@@H]2C(F)(F)F)nc2c1C(C)(C)CN2c1ccc(N2C[C@@H](C)O[C@@H](C)C2)nc1` [Compound E19], under setting [1], the pIC50 is greater than 7.00.
On the same count and under the same terms, the value for `C[C@@H]1CN(c2ccc(N3CC(C)(C)c4c(N)nc(COC(=N)N5CCC[C@@H]5C(F)(F)F)nc43)cn2)C[C@H](C)O1` [Compound E20] was greater than 7.00.
As to `C[C@@H]1CN(c2ccc(N3CC4(CCC4)c4c(NCC(F)(F)F)nc(COC(=N)N5CCC[C@@H]5C(F)(F)F)nc43)cn2)C[C@H](C)O1` [Compound E21], the pIC50 under setting [1] was greater than 7.00.
Regarding `CNc1nc(COC(=N)N2CCCC2C(F)(F)F)nc2c1C(C)(C)C(=O)N2c1ccc(N2CCC(F)(F)CC2)nc1` (stereo not drawn) [Compound E22], the pIC50 under setting [1] was greater than 7.00.
`CNc1nc(COC(=N)N2CCCC2C(F)(F)F)nc2c1C(C)(C)C(=O)N2c1ccc(N2C[C@@H](C)O[C@@H](C)C2)cc1` (stereo partly drawn) [Compound E23]: under setting [1], the pIC50 was greater than 7.00.
Turning to `CC#CC(C)(C)N(C)C(=N)OCc1nc(N)c2c(n1)N(c1ccc(N3CCOCC3)cc1)C(=O)C2(C)C` [Compound E27], under setting [1], the pIC50 was 5.30 to 6.30.
For the compound `CNc1nc(COC(=N)N2CCCC2C(F)(F)F)nc2c1C(C)(C)C(=O)N2c1ccccc1Oc1ccccc1F` (stereo not drawn) [Compound E29], the pIC50 (Homo sapiens, 786-0, 72 h) was greater than 7.00.
Turning to `CNc1nc(COC(=N)N2CCC[C@@H]2C(F)(F)F)nc2c1C(C)(C)C(=O)N2c1cc(F)c2c(cnn2C(C)C)c1` [Compound E31], the pIC50 under setting [1] was greater than 7.00.
Turning to `CNc1nc(COC(=N)N2CCC[C@@H]2C(F)(F)F)nc2c1C(C)(C)C(=O)N2c1cc(F)c2c(c1)nc(C)n2C(C)C` [Compound E32], the pIC50 (786-O cells, 72 hours, CellTiter Glo) was greater than 7.00.
In the case of `C[C@@H]1CN(c2ccc(N3C(=O)C4(CCC4)c4c(N)nc(COC(=N)N5CCC[C@@H]5C(F)(F)F)nc43)cn2)C[C@H](C)O1` [Compound E33], the pIC50 under setting [1] is greater than 7.00.
The same measure, in the same setting: next, `C[C@@H]1C[C@H](C)CN(c2ncc(N3C(=O)C(C)(C)c4c(N)nc(COC(=N)N5CCC[C@@H]5C(F)(F)F)nc43)cc2F)C1` [Compound E34]: greater than 7.00; `C[C@@H]1C[C@H](C)CN(c2ccc(N3C(=O)C(C)(C)c4c(N)nc(COC(=N)N5CCC[C@@H]5C(F)(F)F)nc43)cc2F)C1` [Compound E35]: greater than 7.00; `CNc1nc(COC(=N)N2CCC[C@@H]2C(F)(F)F)nc2c1C(C)(C)C(=O)N2c1cnc(N2C[C@@H](C)O[C@@H](C)C2)c(F)c1` [Compound E36]: greater than 7.00.
Still for that read-out and setting: the value for `C[C@@H]1CN(c2ncc(N3C(=O)C(C)(C)c4c(N)nc(COC(=N)N5CCC[C@@H]5C(F)(F)F)nc43)cc2F)C[C@H](C)O1` [Compound E37] was greater than 7.00; that for `C[C@@H]1CN(c2ccc(N3C(=O)C(C)(C)c4c(NCC(F)(F)F)nc(COC(=N)N5CCC[C@@H]5C(F)(F)F)nc43)cn2)C[C@H](C)O1` [Compound E38] was greater than 7.00; that for `CNc1nc(COC(=N)N2CCC[C@@H]2C(F)(F)F)nc2c1C(C)(C)C(=O)N2c1ccc(N2C[C@H](C)C[C@H](C)C2)c(F)c1` [Compound E39] was greater than 7.00.
As for `CNc1nc(COC(=N)N2CC(F)(F)C[C@@H]2C)nc2c1C(C)(C)C(=O)N2c1ccc(N2CCOCC2)cc1` [Compound E41], the pIC50 under setting [1] was 6.30 to 7.00.
The same measure, in the same setting: the value for `CNc1nc(COC(=N)N2CC(F)(F)C[C@H]2C)nc2c1C(C)(C)C(=O)N2c1ccc(N2CCOCC2)cc1` [Compound E42] was 6.30 to 7.00; that for `C[C@@H]1C[C@H](C)CN(c2ccc(N3C(=O)C(C)(C)c4c(NCC(F)(F)F)nc(COC(=N)N5CCC[C@@H]5C(F)(F)F)nc43)cc2F)C1` [Compound E43] was greater than 7.00.
On the same count and under the same terms, next, `C[C@@H]1CN(c2ccc(N3C(=O)C4(CCCC4)c4c(NCC(F)(F)F)nc(COC(=N)N5CCC[C@@H]5C(F)(F)F)nc43)cn2)C[C@H](C)O1` [Compound E44]: greater than 7.00; `C[C@@H]1CN(c2ccc(N3C(=O)C4(CCCCC4)c4c(N)nc(COC(=N)N5CCC[C@@H]5C(F)(F)F)nc43)cn2)C[C@H](C)O1` [Compound E45]: greater than 7.00.
In the case of `C[C@@H]1CN(c2ccc(N3C(=O)C4(CCCC4)c4c(N)nc(COC(=N)N5CCC[C@@H]5C(F)(F)F)nc43)cn2)C[C@H](C)O1` [Compound E46], the pIC50 (Homo sapiens, 786-0, 72 h) was greater than 7.00.
On to `COc1cc(N2C[C@@H](C)O[C@@H](C)C2)ncc1N1C(=O)C(C)(C)c2c(N)nc(COC(=N)N3CCC[C@@H]3C(F)(F)F)nc21` [Compound E47], for which the pIC50 under setting [1] was 6.30 to 7.00.
On to `CC1(C)C(=O)N(c2ccc(N3CCOCC3)cc2)c2nc(COC(=N)N3CCC[C@@H]3C(F)(F)F)nc(NCC(F)(F)F)c21` [Compound E48], for which the pIC50 under setting [1] is greater than 7.00.
Same read-out and setting: next, `CC1(C)C(=O)N(c2ccc(N3CCCCC3)cc2)c2nc(COC(=N)N3CCC[C@@H]3C(F)(F)F)nc(NCC(F)(F)F)c21` [Compound E49]: greater than 7.00; `C[C@@H]1CN(c2ccc(N3C(=O)C(C)(C)c4c(NCC(F)(F)F)nc(COC(=N)N5CCC[C@@H]5C(F)(F)F)nc43)cc2F)C[C@H](C)O1` [Compound E50]: greater than 7.00.
Still for that read-out and setting: next, `CC1(C)C(=O)N(c2cc(F)c3c(c2)CCCO3)c2nc(COC(=N)N3CCC[C@@H]3C(F)(F)F)nc(NCC(F)(F)F)c21` [Compound E51]: greater than 7.00; `CC1(C)C(=O)N(c2ccc(N3CCOCC3)cc2)c2nc(COC(=N)N3CC(F)C[C@H]3C(F)(F)F)nc(N)c21` (stereo partly drawn) [Compound E52]: 6.30 to 7.00; `N=C(OCc1nc(NC2CC2)c2c(n1)N(c1ccc(N3CCOCC3)cc1)C(=O)C21CCCC1)N1CCC[C@@H]1C(F)(F)F` [Compound E53, (4′-(cyclopropylamino)-7′-(4-morpholinophenyl)-6′-oxo-6′,7′-dihydrospiro[cyclopentane-1,5′-pyrrolo[2,3-d]pyrimidin]-2′-yl)methyl (R)-2-(trifluoromethyl)pyrrolidine-1-carbimidate]: greater than 7.00.
On the same count and under the same terms, next, `CN(C)c1nc(COC(=N)N2CCC[C@@H]2C(F)(F)F)nc2c1C(C)(C)C(=O)N2c1ccc(N2CCOCC2)cc1` [Compound E54]: greater than 7.00.
Turning to `N=C(OCc1nc(NC2CC2)c2c(n1)N(c1cc(F)c3c(c1)CCO3)C(=O)C21CCCCC1)N1CCC[C@@H]1C(F)(F)F` [Compound E55], the pIC50 under setting [1] was greater than 7.00.
In the case of `C=CCNc1nc(COC(=N)N2CCC[C@@H]2C(F)(F)F)nc2c1C(C)(C)C(=O)N2c1ccc(N2CCOCC2)cc1` [Compound E56], the pIC50 under setting [1] was greater than 7.00.
The same measure, in the same setting: the value for `N=C(OCc1ncc2c(n1)N(c1ccc(N3CCOCC3)cc1)C(=O)C21CCCCC1)N1CCC[C@@H]1C(F)(F)F` [Compound E58] was greater than 7.00.
Still for that read-out and setting: the value for `CC1(C)C(=O)N(c2cnc(N3CCC(F)(F)CC3)nc2)c2nc(COC(=N)N3CCC[C@@H]3C(F)(F)F)nc(NC3CC3)c21` [Compound E59] was greater than 7.00.
